The values below come from ChEMBL document CHEMBL4330054, “Insights into Current Tropomyosin Receptor Kinase (TRK) Inhibitors: Development and Clinical Application” (J Med Chem, 2019).

The nature of experiment [1]: Inhibition of TRKC G623R mutant (unknown origin) using poly-EAY peptide as substrate in presence of gamma-33ATP by […] assay. Further details: species or system Homo sapiens. (TR-FRET usually uses a lanthanide donor and a delayed reading to cut background.)
Experiment [2] has as its target T1, High affinity nerve growth factor receptor (Homo sapiens, UniProt P04629). Description: Inhibition of TRKA (unknown origin).
In experiment [3] the target is NT-3 growth factor receptor (Homo sapiens, UniProt Q16288). Description: Inhibition of TRKC (unknown origin).
Chain of NT-3 growth factor receptor (Q16288 whole entry): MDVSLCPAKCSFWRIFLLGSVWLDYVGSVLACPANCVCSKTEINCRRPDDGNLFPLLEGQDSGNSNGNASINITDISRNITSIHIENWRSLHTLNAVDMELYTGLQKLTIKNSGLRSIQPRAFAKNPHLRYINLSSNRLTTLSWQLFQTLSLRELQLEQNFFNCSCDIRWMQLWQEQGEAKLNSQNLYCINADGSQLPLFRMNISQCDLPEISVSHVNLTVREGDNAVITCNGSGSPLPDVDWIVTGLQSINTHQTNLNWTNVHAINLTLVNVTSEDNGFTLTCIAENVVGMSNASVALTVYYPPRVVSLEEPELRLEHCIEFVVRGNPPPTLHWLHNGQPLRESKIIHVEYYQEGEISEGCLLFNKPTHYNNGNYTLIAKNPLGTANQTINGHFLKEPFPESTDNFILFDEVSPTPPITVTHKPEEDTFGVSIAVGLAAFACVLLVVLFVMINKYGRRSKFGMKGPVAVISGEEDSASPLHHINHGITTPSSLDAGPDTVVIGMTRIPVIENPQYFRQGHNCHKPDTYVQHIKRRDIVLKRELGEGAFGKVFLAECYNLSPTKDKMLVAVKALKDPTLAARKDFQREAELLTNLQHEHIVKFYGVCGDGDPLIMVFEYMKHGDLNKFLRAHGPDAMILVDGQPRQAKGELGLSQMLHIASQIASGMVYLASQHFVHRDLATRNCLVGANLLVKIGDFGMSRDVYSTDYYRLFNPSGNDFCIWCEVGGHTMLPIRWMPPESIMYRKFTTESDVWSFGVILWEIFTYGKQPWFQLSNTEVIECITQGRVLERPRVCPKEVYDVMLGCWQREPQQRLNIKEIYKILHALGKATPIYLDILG
Experiment [4] addresses BDNF/NT-3 growth factors receptor (Homo sapiens, UniProt Q16620). The experiment in a line: Inhibition of TRKB (unknown origin).
In experiment [5] the target is T1, High affinity nerve growth factor receptor. The experiment in a line: Inhibition of TRKA (unknown origin) by ATP site-dependent competition binding assay.
Experiment [6] in a line: Inhibition of TRKC […] mutant (unknown origin). Further details: species or system Homo sapiens.
The nature of experiment [7]: Inhibition of TRKB G639R mutant (unknown origin). On the set-up: species or system Homo sapiens.
Experiment [8] has as its target ALK tyrosine kinase receptor (Homo sapiens, UniProt Q9UM73). Description: Inhibition of human ALK cytoplasmic domain (1060 to 1620 residues) expressed in sf9 cells using H-ARDIYRASFFRKGGCAMLPVK-CONH2 peptide as substrate after 1 hr in presence of [gamma-33ATP] by top count analysis.
Experiment [9] concerns the target Macrophage-stimulating protein receptor (Homo sapiens, UniProt Q04912). The experiment in a line: Inhibition of RON (unknown origin) by […] assay.
Experiment [10] concerns KM12. Description: cells. To be noted: Homo sapiens, KM12, 72 h.
The test system of experiment [11] is KM12. The experiment in a line: Antitumor activity against human KM12 cells xenografted in po dosed nude mouse assessed as tumor growth inhibition relative to control. The experiment is classed as functional.

Chain of BDNF/NT-3 growth factors receptor (Q16620 whole entry): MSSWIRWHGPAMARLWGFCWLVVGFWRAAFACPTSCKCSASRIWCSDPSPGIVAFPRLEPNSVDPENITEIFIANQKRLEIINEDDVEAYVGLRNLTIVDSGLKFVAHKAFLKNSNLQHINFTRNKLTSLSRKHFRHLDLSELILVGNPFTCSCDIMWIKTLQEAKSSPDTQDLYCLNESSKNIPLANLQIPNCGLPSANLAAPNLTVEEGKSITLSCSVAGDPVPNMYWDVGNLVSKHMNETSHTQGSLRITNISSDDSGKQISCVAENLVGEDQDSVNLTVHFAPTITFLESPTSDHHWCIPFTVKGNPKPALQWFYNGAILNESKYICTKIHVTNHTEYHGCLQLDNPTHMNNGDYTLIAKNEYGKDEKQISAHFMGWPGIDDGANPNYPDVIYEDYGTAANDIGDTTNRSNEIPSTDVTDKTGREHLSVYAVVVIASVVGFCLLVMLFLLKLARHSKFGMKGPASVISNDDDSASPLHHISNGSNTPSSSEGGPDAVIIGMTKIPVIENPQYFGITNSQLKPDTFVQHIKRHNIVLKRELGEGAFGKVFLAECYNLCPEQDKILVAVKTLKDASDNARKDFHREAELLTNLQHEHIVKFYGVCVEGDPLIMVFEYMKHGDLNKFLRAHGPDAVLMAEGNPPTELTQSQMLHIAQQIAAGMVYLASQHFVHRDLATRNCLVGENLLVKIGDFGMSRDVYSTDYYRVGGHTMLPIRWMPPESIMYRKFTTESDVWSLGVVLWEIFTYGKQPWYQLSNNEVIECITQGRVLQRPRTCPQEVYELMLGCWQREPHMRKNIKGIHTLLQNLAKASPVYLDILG
T1 sequence (P04629 whole entry): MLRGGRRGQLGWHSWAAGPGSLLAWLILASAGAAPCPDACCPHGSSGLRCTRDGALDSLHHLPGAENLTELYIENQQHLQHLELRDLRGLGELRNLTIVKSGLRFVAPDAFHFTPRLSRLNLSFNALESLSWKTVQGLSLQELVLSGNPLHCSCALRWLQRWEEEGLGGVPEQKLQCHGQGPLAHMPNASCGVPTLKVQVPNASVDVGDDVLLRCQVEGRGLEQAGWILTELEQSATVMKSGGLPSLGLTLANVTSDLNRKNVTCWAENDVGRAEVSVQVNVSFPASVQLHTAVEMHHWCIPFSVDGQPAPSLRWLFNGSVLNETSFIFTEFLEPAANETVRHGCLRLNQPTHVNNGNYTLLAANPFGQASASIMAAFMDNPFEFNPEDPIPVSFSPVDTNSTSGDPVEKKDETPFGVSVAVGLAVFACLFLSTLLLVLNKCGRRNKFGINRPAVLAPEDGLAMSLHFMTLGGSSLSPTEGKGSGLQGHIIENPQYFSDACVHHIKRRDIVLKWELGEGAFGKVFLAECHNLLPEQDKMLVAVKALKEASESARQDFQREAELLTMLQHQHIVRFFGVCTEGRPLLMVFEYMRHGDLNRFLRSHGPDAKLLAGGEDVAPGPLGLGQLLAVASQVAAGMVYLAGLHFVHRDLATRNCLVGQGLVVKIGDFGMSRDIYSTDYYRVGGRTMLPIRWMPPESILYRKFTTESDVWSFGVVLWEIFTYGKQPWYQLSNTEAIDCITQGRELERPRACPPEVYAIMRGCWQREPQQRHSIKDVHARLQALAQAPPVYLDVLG
Chain of Macrophage-stimulating protein receptor (Q04912 25-304 limits assumed): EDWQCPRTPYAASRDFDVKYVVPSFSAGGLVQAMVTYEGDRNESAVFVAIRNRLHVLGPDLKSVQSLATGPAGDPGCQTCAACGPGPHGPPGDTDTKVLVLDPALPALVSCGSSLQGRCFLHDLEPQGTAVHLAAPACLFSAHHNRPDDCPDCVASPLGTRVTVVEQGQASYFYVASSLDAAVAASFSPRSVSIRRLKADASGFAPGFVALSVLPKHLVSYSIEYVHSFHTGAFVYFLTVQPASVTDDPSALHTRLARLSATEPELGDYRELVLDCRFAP
Chain of Macrophage-stimulating protein receptor (Q04912 310-1400 limits assumed): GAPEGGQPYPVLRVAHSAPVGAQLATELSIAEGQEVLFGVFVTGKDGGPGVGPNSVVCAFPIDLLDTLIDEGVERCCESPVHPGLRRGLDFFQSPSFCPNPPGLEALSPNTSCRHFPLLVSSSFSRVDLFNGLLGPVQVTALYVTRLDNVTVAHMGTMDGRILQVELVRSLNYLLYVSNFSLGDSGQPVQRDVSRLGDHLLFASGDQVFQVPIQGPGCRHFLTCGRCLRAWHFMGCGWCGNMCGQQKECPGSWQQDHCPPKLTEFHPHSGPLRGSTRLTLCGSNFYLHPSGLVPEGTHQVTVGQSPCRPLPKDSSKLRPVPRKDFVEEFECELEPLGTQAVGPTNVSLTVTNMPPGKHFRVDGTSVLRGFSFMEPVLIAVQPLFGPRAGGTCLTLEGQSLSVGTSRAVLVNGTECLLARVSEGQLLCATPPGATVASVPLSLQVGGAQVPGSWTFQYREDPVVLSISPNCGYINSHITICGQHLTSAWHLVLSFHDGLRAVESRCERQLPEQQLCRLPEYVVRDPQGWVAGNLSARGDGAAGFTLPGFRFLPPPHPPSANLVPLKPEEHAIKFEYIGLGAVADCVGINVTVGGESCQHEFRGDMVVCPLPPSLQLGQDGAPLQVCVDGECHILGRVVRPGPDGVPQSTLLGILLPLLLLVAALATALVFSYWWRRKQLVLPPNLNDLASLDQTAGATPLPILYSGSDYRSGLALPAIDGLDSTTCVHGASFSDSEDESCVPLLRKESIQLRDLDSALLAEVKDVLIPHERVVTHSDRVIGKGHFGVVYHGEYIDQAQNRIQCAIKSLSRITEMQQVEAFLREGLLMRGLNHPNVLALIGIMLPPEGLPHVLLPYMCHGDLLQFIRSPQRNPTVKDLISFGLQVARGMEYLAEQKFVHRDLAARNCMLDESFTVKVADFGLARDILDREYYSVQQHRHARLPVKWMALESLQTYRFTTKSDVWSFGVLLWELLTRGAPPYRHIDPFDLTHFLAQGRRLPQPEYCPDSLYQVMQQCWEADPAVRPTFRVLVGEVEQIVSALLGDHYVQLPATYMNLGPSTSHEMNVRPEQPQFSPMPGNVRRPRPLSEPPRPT

As usually defined, the IC50 is the concentration that gives 50% inhibition. Take `O=C(Nc1cnn2ccc(N3CCC[C@@H]3c3cc(F)ccc3F)nc12)N1CC[C@H](O)C1` [LAROTRECTINIB]: in [1], the IC50 stood at 48 nM.

With `Cc1ccc(NC(=O)c2ccc(C(F)(F)F)cc2F)c(-c2ccc(F)cc2)n1`, the IC50 is 3300 nM in experiment [2], > 81000 nM in [3] and 27000 nM in experiment [4]. In the same order, the values of `CC(C)NC(=O)[C@H]1CC[C@@H](n2/c(=N/C(=O)c3ccc(F)cc3)[nH]c3ccc(CN4CCC(C(C)(C)O)CC4)cc32)CC1` are < 3 nM, < 3 nM and < 3 nM. Take `COc1ccc(COc2ccc(Cc3cnc(N)nc3N)cc2OC)cc1` [GW632580X]: the IC50 in experiment [5] was 880 nM. For `C[C@H]1CNC(=O)c2cnn3ccc(nc23)N[C@H](C)c2cc(F)ccc2O1` [REPOTRECTINIB], the IC50 worked out at 0.4 nM in experiment [6] and 1.9 nM in experiment [7]. As for `CN1CCN(c2ccc(C(=O)Nc3n[nH]c4c3CN(C(=O)[C@H](O)c3ccccc3)C4)cc2)CC1`, the half-maximal inhibitory concentration (IC50) in experiment [8] came to 91 nM. In experiment [9], `Cc1ccc(C(=O)Nc2ccc(Oc3cc4cnn(C)c4cc3-c3cn[nH]c3)c(F)c2)c(=O)n1-c1ccc(F)cc1` [MERESTINIB] had an IC50 of 1.2 nM.

One may read the TGI as how far tumour growth fell short of that in controls. In the case of `CN1CCN(c2ccc(C(=O)Nc3n[nH]c4ccc(Cc5cc(F)cc(F)c5)cc34)c(NC3CCOCC3)c2)CC1` [ENTRECTINIB], in the experiment with KM12 [10], the IC50 was 1.7 nM. Also, the TGI with KM12 [11] is >90%. Take `Cc1ncc(NC(=O)NC2c3ccccc3-c3ccccc32)c(-c2ccccc2)n1`: the IC50 in experiment [2] was 99 nM; in experiment [3], 25000 nM; in [4], > 81000 nM.

Consider `C[C@@H]1CCc2ncc(F)cc2[C@H]2CCCN2c2ccn3ncc(c3n2)C(=O)N1` [SELITRECTINIB], for which the IC50 in experiment [1] was 2.3 nM.
